According to US20230391772A1, “METHODS AND COMPOSITIONS FOR TARGETED PROTEIN DEGRADATION” (Ranok Therapeutics (Hangzhou) Co. Ltd., priority 2020, published 2023):
pEC50, pIC50: −log10 of the molar value.

Columns and labels:
[1] = test system: NCI-H23 human non-small cell lung cancer; assay: NCI-H23 CCK-8 proliferation assay; type: cell-based; settings: NCI-H23 cells, 72 hr
Protocol: The following cancer cell lines were employed: BT-474 human breast carcinoma (ATCC, #HTB-20); MIA PaCa-2 human pancreatic carcinoma [2 copies KRAS(G12C)](ATCC, #CRL-1420); NCI-H23 human non-small cell lung cancer [1 copy KRAS(G12C)](ATCC, #CRL-5800); NCI-H358 human non-small cell lung cancer [1 copy KRAS(G12C)](ATCC, #CRL-5807); LU65A human lung carcinoma (Pharmaron, Beijing, China). Cell lines were cultured essentially according to ATCC and Pharmaron recommendations.
Cancer Cell Line Proliferation (CCK-8) Assays
3-fold serial dilutions of each test compound were prepared ranging from 20 μM to 1.02 nM.
% Inhibition=100−(D−B)/(S−B)*100%. • S: Absorbance of cells treated with DMSO • D: Absorbance of compound-treated cells • B: Absorbance of medium with DMSO without cells

HSP90a protein = target: T1, HSP90a protein (Homo sapiens, UniProt P07900); assay: HSP90α-binding fluorescent polarization (FP) assay, BODIPY-labeled RNK04010 probe; settings: FP competition with RNK04010 (BODIPY-labeled), 5 nM, 300 min at 25° C.
T1 construct: purchased BPS Bioscience 50298
In short: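 N-terminal HSP90a construct; tracer 5 nM final (FITC-geldanamycin or BODIPY-RNK04010, a labeled triazolone binder). Compounds 20 μM–5.2 nM, 2.5-fold steps. 25° C, 120 min (FITC) / 300 min (BODIPY). FP readout.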

KRAS(G12C) = KRAS(G12C) (Homo sapiens, UniProt P01116, G12C); assay: KRAS(G12C)/SOS1 homogeneous time-resolved fluorescence (HTRF) assay; design: purchased Cisbio 63ADK000CB16PEG; settings: absence of GTP, 4° C. for 3 hr, read-out: KRAS (G12C) binding
Chain of KRAS(G12C) (P01116 1-188 isoform P01116-2 G12C): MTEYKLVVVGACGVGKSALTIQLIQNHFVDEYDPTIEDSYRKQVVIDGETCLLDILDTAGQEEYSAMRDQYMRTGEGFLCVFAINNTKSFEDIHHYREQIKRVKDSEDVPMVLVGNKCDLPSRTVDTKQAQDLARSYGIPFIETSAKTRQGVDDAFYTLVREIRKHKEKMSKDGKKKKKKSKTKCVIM
In short: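 Three-hour incubation at 4 °C of 3-fold compound dilutions (lowest 1.02 nM) with KRAS(G12C), SOS1 and detection reagents, GTP absent. Disruption of the KRAS(G12C)/SOS1 complex detected by time-resolved fluorescence.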

[2] = test system: NCI-H358 human non-small cell lung cancer; assay: NCI-H358 CCK-8 proliferation assay; type: cell-based; settings: NCI-H358 cells, 72 hr
In short: (§1)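 Proliferation of mutant-KRAS(G12C) cells (2 copies in MIA PaCa-2, single copy in NCI-H358/NCI-H23) measured with CCK-8 after treatment across 20 μM–1.02 nM; inhibition expressed relative to vehicle-treated wells after subtracting no-cell background.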

[3] = test system: MIA PaCa-2 human pancreatic carcinoma; assay: MIA PaCa-2 CCK-8 proliferation assay; type: cell-based; settings: Homo sapiens, MIA PaCa-2, 72 h, MIA PaCa-2 cells
In short: as §1

Compound	pEC50 [1]	pIC50 (HSP90a protein)	pIC50 (KRAS(G12C))	pEC50 [2]	pEC50 [3]
C=CC(=O)N1CCN(c2nc(NCCC(=O)N3CCC(CN4CCN(Cc5ccc(-n6c(C(=O)NCC(F)(F)F)nnc6-c6cc(CC)c(O)cc6O)cc5)CC4)CC3)nc3c2CCN(c2cc(O)cc4ccccc24)C3)CC1 [Compound 17, 4-(4-((4-((1-(3-((4-(4-acryloylpiperazin-1-yl)-7-(3-hydroxynaphthalen-1-yl)-5,6,7,8-tetrahydropyrido[3,4-d]pyrimidin-2-yl)amino)propanoyl)piperidin-4-yl)methyl)piperazin-1-yl)methyl)phenyl)-5-(5-ethyl-2,4-dihydroxyphenyl)-N-(2,2,2-trifluoroethyl)-4H-1,2,4-triazole-3-carboxamide, trifluoroacetic acid]	6.00 to 7.00	6.00 to 7.00	< 6.00	6.00 to 7.00	–
C=CC(=O)N1CCN(c2nc(NCCC(=O)NCC3CCC(C(=O)N4CCN(Cc5ccc(-n6c(O)nnc6-c6cc(CC)c(O)cc6O)cc5)CC4)CC3)nc3c2CCN(c2cc(O)cc4ccccc24)C3)CC1 (stereo not shown) [Compound 23, 3-((4-(4-acryloylpiperazin-1-yl)-7-(3-hydroxynaphthalen-1-yl)-5,6,7,8-tetrahydropyrido[3,4-d]pyrimidin-2-yl)amino)-N-((4-(4-(4-(3-(5-ethyl-2,4-dihydroxyphenyl)-5-hydroxy-4H-1,2,4-triazol-4-yl)benzyl)piperazine-1-carbonyl)cyclohexyl)methyl)propanamide, trifluoroacetic acid]	6.00 to 7.00	6.00 to 7.00	< 6.00	6.00 to 7.00	–
C=CC(=O)N1CCN(c2nc(NCCC(=O)NCc3ccc(CN4CCC(Cc5ccc(-n6c(C(=O)NCC(F)(F)F)nnc6-c6cc(C(C)C)c(O)cc6O)cc5)CC4)cc3)nc3c2CCN(c2cc(O)cc4ccccc24)C3)CC1 [Compound 25, 4-(4-((1-(4-((3-((4-(4-acryloylpiperazin-1-yl)-7-(3-hydroxynaphthalen-1-yl)-5,6,7,8-tetrahydropyrido[3,4-d]pyrimidin-2-yl)amino)propanamido)methyl)benzyl)piperidin-4-yl)methyl)phenyl)-5-(2,4-dihydroxy-5-isopropylphenyl)-N-(2,2,2-trifluoroethyl)-4H-1,2,4-triazole-3-carboxamide, trifluoroacetic acid]	6.00 to 7.00	> 7.00	–	6.00 to 7.00	6.00 to 7.00
CCc1cc(-c2nnc(C(=O)NC(C)C)n2-c2ccc(CN3CCN(CC4CCN(C(=O)CCNc5nc6c(c(N7CCN(C(C)=O)CC7)n5)CCN(c5cc(O)cc7ccccc57)C6)CC4)CC3)cc2)c(O)cc1O [Compound 55, 4-(4-((4-((1-(3-((4-(4-acetylpiperazin-1-yl)-7-(3-hydroxynaphthalen-1-yl)-5,6,7,8-tetrahydropyrido[3,4-d]pyrimidin-2-yl)amino)propanoyl)piperidin-4-yl)methyl)piperazin-1-yl)methyl)phenyl)-5-(5-ethyl-2,4-dihydroxyphenyl)-N-isopropyl-4H-1,2,4-triazole-3-carboxamide, trifluoroacetic acid]	6.00 to 7.00	> 7.00	< 6.00	6.00 to 7.00	–
CCC(=O)N1CCN(c2nc(NCCC(=O)NCc3ccc(CN4CCC(Cc5ccc(-n6c(C(=O)NCC(F)(F)F)nnc6-c6cc(C(C)C)c(O)cc6O)cc5)CC4)cc3)nc3c2CCN(c2cc(O)cc4ccccc24)C3)CC1 [Compound 62, 5-(2,4-dihydroxy-5-isopropylphenyl)-4-(4-((1-(4-((3-((7-(3-hydroxynaphthalen-1-yl)-4-(4-propionylpiperazin-1-yl)-5,6,7,8-tetrahydropyrido[3,4-d]pyrimidin-2-yl)amino)propanamido)methyl)benzyl)piperidin-4-yl)methyl)phenyl)-N-(2,2,2-trifluoroethyl)-4H-1,2,4-triazole-3-carboxamide, trifluoroacetic acid]	6.00 to 7.00	6.00 to 7.00	< 6.00	6.00 to 7.00	–
CCC(=O)N1CCN(c2nc(NCCC(=O)N3CCC(CN4CCN(Cc5ccc(-n6c(C(=O)NC(C)C)nnc6-c6cc(CC)c(O)cc6O)cc5)CC4)CC3)nc3c2CCN(c2cc(O)cc4ccccc24)C3)CC1 [Compound 64, 5-(5-ethyl-2,4-dihydroxyphenyl)-4-(4-((4-((1-(3-((7-(3-hydroxynaphthalen-1-yl)-4-(4-propionylpiperazin-1-yl)-5,6,7,8-tetrahydropyrido[3,4-d]pyrimidin-2-yl)amino)propanoyl)piperidin-4-yl)methyl)piperazin-1-yl)methyl)phenyl)-N-isopropyl-4H-1,2,4-triazole-3-carboxamide, trifluoroacetic acid]	6.00 to 7.00	6.00 to 7.00	< 6.00	6.00 to 7.00	–
CC(=O)N1CCN(c2nc(NCCC(=O)N3CCC(Cc4ccc(CN(C)Cc5ccc(-n6c(C(=O)NCC(F)(F)F)nnc6-c6cc(C(C)C)c(O)cc6O)cc5)cc4)CC3)nc3c2CCN(c2cc(O)cc4ccccc24)C3)CC1 [Compound 112, 4-(4-(((4-((1-(3-((4-(4-acetylpiperazin-1-yl)-7-(3-hydroxynaphthalen-1-yl)-5,6,7,8-tetrahydropyrido[3,4-d]pyrimidin-2-yl)amino)propanoyl)piperidin-4-yl)methyl)benzyl)(methyl)amino)methyl)phenyl)-5-(2,4-dihydroxy-5-isopropylphenyl)-N-(2,2,2-trifluoroethyl)-4H-1,2,4-triazole-3-carboxamide, trifluoroacetic acid]	6.00 to 7.00	6.00 to 7.00	–	6.00 to 7.00	6.00 to 7.00
CCC(=O)N1CCN(c2nc(NCCC(=O)N3CCC(CN4CCN(Cc5ccc(-n6c(C(=O)NC7CC7)nnc6-c6cc(CC)c(O)cc6O)cc5)CC4)CC3)nc3c2CCN(c2cc(O)cc4ccccc24)C3)CC1 [Compound 116, N-cyclopropyl-5-(5-ethyl-2,4-dihydroxyphenyl)-4-(4-((4-((1-(3-((7-(3-hydroxynaphthalen-1-yl)-4-(4-propionylpiperazin-1-yl)-5,6,7,8-tetrahydropyrido[3,4-d]pyrimidin-2-yl)amino)propanoyl)piperidin-4-yl)methyl)piperazin-1-yl)methyl)phenyl)-4H-1,2,4-triazole-3-carboxamide, trifluoroacetic acid]	6.00 to 7.00	> 7.00	–	6.00 to 7.00	6.00 to 7.00
CCC(=O)N1CCN(c2nc(NCCC(=O)N3CCC(CN4CCN(Cc5ccc(-n6c(C(=O)NC7(C)CC7)nnc6-c6cc(CC)c(O)cc6O)cc5)CC4)CC3)nc3c2CCN(c2cc(O)cc4ccccc24)C3)CC1 [Compound 120, 5-(5-ethyl-2,4-dihydroxyphenyl)-4-(4-((4-((1-(3-((7-(3-hydroxynaphthalen-1-yl)-4-(4-propionylpiperazin-1-yl)-5,6,7,8-tetrahydropyrido[3,4-d]pyrimidin-2-yl)amino)propanoyl)piperidin-4-yl)methyl)piperazin-1-yl)methyl)phenyl)-N-(1-methylcyclopropyl)-4H-1,2,4-triazole-3-carboxamide, trifluoroacetic acid]	6.00 to 7.00	6.00 to 7.00	–	> 7.00	6.00 to 7.00
CCNC(=O)c1nnc(-c2cc(CC)c(O)cc2O)n1-c1ccc(CN2CCN(CC3CCN(C(=O)CCNc4nc5c(c(N6CCN(C(=O)CC)CC6)n4)CCN(c4cc(O)cc6ccccc46)C5)CC3)CC2)cc1 [Compound 121, N-ethyl-5-(5-ethyl-2,4-dihydroxyphenyl)-4-(4-((4-((1-(3-((7-(3-hydroxynaphthalen-1-yl)-4-(4-propionylpiperazin-1-yl)-5,6,7,8-tetrahydropyrido[3,4-d]pyrimidin-2-yl)amino)propanoyl)piperidin-4-yl)methyl)piperazin-1-yl)methyl)phenyl)-4H-1,2,4-triazole-3-carboxamide, trifluoroacetic acid]	6.00 to 7.00	> 7.00	–	> 7.00	6.00 to 7.00
